Source: patent US10759794B2, “2-phenyl-3-(piperazinomethyl)imidazo[1,2-A]pyridine derivatives as blockers of task-1 and task-2 channels, for the treatment of sleep-related breathing disorders” (BAYER PHARMA AKTIENGESELLSCHAFT, priority 2015, dated 2020)

Columns and labels:
human TASK-3 = human TASK-3 (Homo sapiens (Human), UniProt Q9NPC2); assay: Inhibition of recombinant TASK-3 in stably transfected CHO cells (voltage-sensitive dye, FLIPR); format: cell-based
Experimental: (§1) B-2. Inhibition of Recombinant TASK-1 and TASK-3 In Vitro
(§2) The investigations on the inhibition of the recombinant TASK-1 and TASK-3 channels were carried out using stably transfected CHO cells. Here, the compounds according to the invention were tested with administration of 40 mM of potassium chloride in the presence of a voltage-sensitive dye using the method described in detail in the following references [Whiteaker et al., Validation of FLIPR membrane potential dye for high-throughput screening of potassium channel modulators, J. Biomol. Screen. 6 (5), 305-312 (2001); Molecular Devices FLIPR Application Note: Measuring membrane potential using the FLIPR® membrane potential assay kit on Fluorometric Imaging Plate Reader (FLIPR®) systems, http://www.moleculardevices.com/reagents-supplies/assay-kits/ion-channels/flipr-membrane-potential-assay-kits]. The activity of the test substances was determined as their ability to inhibit a depolarization induced in the recombinant cells by 40 mM potassium chloride. The concentration which can block half of this depolarization is referred to as IC50.

human TASK-1 = human TASK-1 (Homo sapiens (Human), UniProt O14649); assay: Inhibition of recombinant TASK-1 in stably transfected CHO cells (voltage-sensitive dye, FLIPR); format: cell-based
Sequence of human TASK-1 (O14649 whole entry): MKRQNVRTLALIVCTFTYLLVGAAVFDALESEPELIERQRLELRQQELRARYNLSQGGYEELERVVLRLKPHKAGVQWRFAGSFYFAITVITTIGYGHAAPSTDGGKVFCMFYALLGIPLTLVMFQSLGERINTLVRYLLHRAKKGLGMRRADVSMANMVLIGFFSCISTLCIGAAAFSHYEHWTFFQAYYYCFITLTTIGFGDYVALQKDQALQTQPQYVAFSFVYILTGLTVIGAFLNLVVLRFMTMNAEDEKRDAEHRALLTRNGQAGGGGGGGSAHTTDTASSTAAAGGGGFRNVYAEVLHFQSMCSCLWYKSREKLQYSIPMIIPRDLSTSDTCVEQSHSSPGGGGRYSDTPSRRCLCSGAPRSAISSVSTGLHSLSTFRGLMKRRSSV
Experimental: as §1, §2

[1] = depolarization induced by 40 mM potassium chloride, Table 2A
[2] = 40 mM potassium chloride, comparative compounds, Table 2B

Sequence of human TASK-3 (Q9NPC2 whole entry): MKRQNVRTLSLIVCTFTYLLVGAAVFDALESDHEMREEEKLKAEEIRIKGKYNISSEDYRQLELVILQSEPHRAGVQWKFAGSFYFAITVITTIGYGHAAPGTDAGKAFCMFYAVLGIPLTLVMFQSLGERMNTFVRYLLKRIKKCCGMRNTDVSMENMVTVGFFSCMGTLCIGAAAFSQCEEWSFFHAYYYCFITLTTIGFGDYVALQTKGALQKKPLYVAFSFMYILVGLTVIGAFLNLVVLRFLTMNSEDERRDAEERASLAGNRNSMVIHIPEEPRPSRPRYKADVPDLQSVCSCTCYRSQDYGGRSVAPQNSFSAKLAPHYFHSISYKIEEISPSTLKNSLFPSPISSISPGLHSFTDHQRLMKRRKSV

| Structure (SMILES) | IC50 (human TASK-3; [1]) | IC50 (human TASK-1; [1]) | IC50 (human TASK-3; [2]) | IC50 (human TASK-1; [2]) |
| --- | --- | --- | --- | --- |
| O=C(C1CCCO1)N1CCN(Cc2c(-c3ccc(Cl)cc3)nc3ccccn23)CC1 (centres unmarked) [Example 35] | 0.79 µM | 1.25 µM | – | – |
| COc1cccc(C(=O)N2CCN(Cc3c(-c4ccc(Cl)cc4)nc4ccccn34)CC2)c1 [Example 19] | 0.3 µM | 0.515 µM | – | – |
| COc1cccc(-c2nc3ccccn3c2CN2CCN(C(=O)C3CCC3)CC2)c1 [WO 2014/187922 Example 208, reference compound] | – | – | 30 µM | 30 µM |
| CCOc1cccc(C(=O)N2CCN(Cc3c(-c4ccc(Cl)cc4)nc4ccccn34)CC2)n1 [Example 45] | 0.063 µM | 2 µM | – | – |
| COc1ccc(F)c(C(=O)N2CCN(Cc3c(-c4ccc(Cl)cc4)nc4ccccn34)CC2)c1 [Example 27] | 0.12 µM | 0.59 µM | – | – |
| N#Cc1ccc(-c2nc3ccccn3c2CN2CCN(C(=O)c3ccccc3F)CC2)cc1 [Example 60] | 4.6 µM | 1.7 µM | – | – |
| Cc1ccccc1C(=O)N1CCN(Cc2c(-c3ccc(Cl)cc3)nc3ccccn23)CC1 [Example 22] | 0.14 µM | 0.387 µM | – | – |
| O=C(c1cccc(Cl)c1)N1CCN(Cc2c(-c3ccc(Cl)cc3)nc3ccccn23)CC1 [Example 36] | 0.19 µM | 0.52 µM | – | – |
| COc1cc(C)cc(C(=O)N2CCN(Cc3c(-c4ccc(Cl)cc4)nc4ccccn34)CC2)n1 [Example 40] | 0.77 µM | 1 µM | – | – |
| COc1cccc(C(=O)N2CCN(Cc3c(-c4ccc(C#N)cc4)nc4ccccn34)CC2)n1 [Example 61] | 1.4 µM | 2.05 µM | – | – |
| COc1ccc(C)c(C(=O)N2CCN(Cc3c(-c4ccc(C(C)(C)C)cc4)nc4ccccn34)CC2)n1 [Example 73] | 0.017 µM | 0.17 µM | – | – |
| O=C(C1CCCCO1)N1CCN(Cc2c(-c3ccc(Cl)cc3)nc3ccccn23)CC1 (centres unmarked) [Example 30] | 0.4 µM | 1.8 µM | – | – |
| COc1ccccc1C(=O)N1CCN(Cc2c(-c3ccc(C)cc3)nc3ccccn23)CC1 [Example 58] | 1.9 µM | 1.91 µM | – | – |
| O=C(c1cccc(F)c1)N1CCN(Cc2c(-c3ccc(Cl)cc3)nc3ccc(C4CC4)cn23)CC1 [WO 2014/187922 Example 178, reference compound] | – | – | 4.8 µM | 30 µM |
| CC(C)(C)c1ccc(-c2nc3ccccn3c2CN2CCN(C(=O)c3ccccc3F)CC2)cc1 [Example 65] | 0.75 µM | 1.1 µM | – | – |
| COc1cccc(C(=O)N2CCN(Cc3c(-c4ccc(Br)cc4)nc4ccccn34)CC2)c1 [Example 5, (4-{[2-(4-Bromophenyl)imidazo[1,2-a]pyridin-3-yl]methyl}piperazin-1-yl)(3-methoxyphenyl)methanone] | 0.38 µM | 0.827 µM | – | – |
| Cc1ccc(F)cc1C(=O)N1CCN(Cc2c(-c3ccc(Cl)cc3)nc3ccccn23)CC1 [Example 23] | 0.16 µM | 0.685 µM | – | – |
| O=C(C1CCCCC1)N1CCN(Cc2c(-c3ccc(Cl)cc3)nc3ccccn23)CC1 [Example 17] | 0.51 µM | 0.774 µM | – | – |
| O=C(c1cccc(OC(F)F)n1)N1CCN(Cc2c(-c3ccc(Cl)cc3)nc3ccccn23)CC1 [Example 44] | 0.017 µM | 0.27 µM | – | – |
| COc1cccc(C(=O)N2CCN(Cc3c(-c4ccc(C)cc4)nc4ccccn34)CC2)n1 [Example 59] | 0.43 µM | 0.8 µM | – | – |
| COc1cccc(C(=O)N2CCN(Cc3c(-c4ccc(C(C)(C)C)cc4)nc4ccccn34)CC2)n1 [Example 64] | 0.45 µM | 0.51 µM | – | – |
| COc1ccccc1C(=O)N1CCN(Cc2c(-c3ccc(Cl)cc3)nc3ccccn23)CC1 [Example 20] | 0.052 µM | 0.305 µM | – | – |
| O=C(c1cc(F)ccc1Cl)N1CCN(Cc2c(-c3ccc(F)cc3)nc3ccccn23)CC1 [Example 51] | 1 µM | 1.89 µM | – | – |
| COc1ccc(F)cc1C(=O)N1CCN(Cc2c(-c3ccc(Br)cc3)nc3ccccn23)CC1 [Example 13] | 0.35 µM | 0.672 µM | – | – |
| N#Cc1ccc(-c2nc3ccccn3c2CN2CCN(C(=O)C3CCCCC3)CC2)cc1 [Example 63] | 1.6 µM | 1.3 µM | – | – |
| Cc1ccc(-c2nc3ccccn3c2CN2CCN(C(=O)C3CCCC3)CC2)cc1 [Example 56] | 0.7 µM | 0.642 µM | – | – |
| O=C(c1cnccn1)N1CCN(Cc2c(-c3ccc(Cl)cc3)nc3ccc(C4CC4)cn23)CC1 [WO 2014/187922 Example 263, reference compound] | – | – | 5.7 µM | 30 µM |
| COc1ccc(F)c(C(=O)N2CCN(Cc3c(-c4ccc(C#N)cc4)nc4ccccn34)CC2)c1 [Example 70] | 0.35 µM | 1.8 µM | – | – |
